Test results taken from US20210213104A1, “GLUCAGON AND GLP-1 CO-AGONISTS FOR THE TREATMENT OF CHRONIC KIDNEY DISEASE AND DIABETIC KIDNEY DISEASE IN TYPE 2 DIABETES” (MEDIMMUNE LIMITED, priority 2020, published 2021).
Where “and” joins values, the source holds several entries; their conditions need not be identical. Equal values may be shown once.

Assays:
Format in all cases: in vivo, human
[1] = system: subjects with T2DM and renal impairment; assay: Phase 2a: blood pressure and heart rate (ABPM and office-based)
From the text: After instruction, subjects set up and applied an ambulatory blood pressure monitoring (ABPM) device. The subjects were advised to undergo normal daily activities while wearing the cuff and to avoid any strenuous forms of activity, bathing, or showering while wearing the cuff. The subjects were advised to remain still during the measurement with the arm relaxed at heart level. During ABPM, systolic BP, diastolic BP, heart rate pressure, heart rate, and mean arterial pressure readings were recorded over a period of 24 hours.
Based on post-hoc analysis, ABPM measurements were as follows: mean change from baseline to Day 32: −1.15 mmHg vs 2.21 mmHg (systolic, Cotadutide vs Placebo) and 2.54 mmHg vs 1.84 mmHg (diastolic, Cotadutide vs Placebo). Increases in supine blood pressure from baseline were also observed after 32 days of treatment: 1.44 mmHg vs 8.69 mmHg (systolic, Cotadutide vs placebo) and 0.57 mmHg vs 3.40 mmHg (diastolic, Cotadutide vs placebo); however, these changes were also not clinically significant and were numerically greater in the placebo group.
Based on office-based measurement, increases in postural blood pressure difference were observed after 32 days of treatment: 8.9 mmHg vs 0 1 mmHg (systolic, Cotadutide vs placebo) and 0.8 mmHg vs 1 8 mmHg (diastolic, Cotadutide vs placebo); however, these changes were not clinically significant.
By Day 32, the LS mean change from baseline in pulse rate (office-based measure) was an increase of 14.13 bpm for subjects in the Cotadutide dose group and 3.14 bpm for subjects in the placebo dose group (p <0.001). […] Mean heart rate changes from baseline to Day 32 were numerically greater while asleep (13.06 bpm vs −2.28 bpm) compared to awake (10.78 bpm vs −0.80 bpm) for subjects on Cotadutide vs placebo, respectively.

[2] = system: subjects with T2DM and renal impairment; assay: Phase 2a: eGFR (CKD-EPI equation); conditions: Day 33 / after 32 days
From the text: Inclusion criteria: • Male and female subjects, aged ≥18 years and <85 years at screening; • Body mass index (BMI) between 25 kg/m^2 and 40 kg/m^2 (inclusive) at screening; • HbA1c range of 6.5% to 10.5% (inclusive) at the time of screening; • Diagnosed with T2DM with glucose control managed with any insulin and/or oral therapy combination where no significant dose changes of oral therapy of more than 50% had occurred in the 3 months prior to screening (at least 50% of the subject N=20) enrolled were required to have been taking insulin at a total daily dose of ≥20 units); • Renal impairment with eGFR ≥30 and <60 mL/min/1.73 m^2 at screening. Approximately 16 subjects (40%) were required to have a screening eGFR ≥45 and <60 mL/min/1.73 m^2 (in order to ensure subjects at both ends of the moderate renal impairment spectrum were adequately represented). eGFR was determined by the chronic kidney disease-epidemiology collaboration (CKD-EPI) equation. (eGFR=141×min(SCr/κ, 1)^α×max (SCr/κ, 1)^[…]^Age×1.018 [if female]×1.159 [if Black]; wherein SCr (standardized serum creatinine)=mg/dL, κ=0.7 (females) or 0.9 (males), α=−0.329 (females) or −0.411 (males), min=indicates the minimum of SCr/κ or 1, max=indicates the maximum of SCr/κ or 1, and age=years)

[3] = system: subjects with T2DM and renal impairment; assay: Phase 2a: HbA1c blood test; conditions: ITT; for HbA1c LS Mean Change / HbA1c Change from Baseline, Mean / HbA1c Difference in LS Mean Change (vs Placebo): Day 1 to Day 32; for HbA1c LS Mean Change: ANCOVA
Experimental: Cotadutide was titrated from 50 μg up to 300 μg and administered once daily by subcutaneous (SC) injection over 32 days.
Cotadutide was administered at 50 μg once daily for 4 days, followed by 100 μg daily for 7 days, 200 μg daily for 7 days, and 300 μg daily for 14 days (n=20). Placebo was administered one daily for 32 days (n=20). Cotadutide and placebo were administered in the morning. Dosing commenced following predose baseline vital signs, blood tests (including HbA1c), an electrocardiogram (ECG), body weight measurement, and bioimpedance spectroscopy (BIS). Subjects then returned for daily dosing or remained overnight locally until Day 5, and thereafter, had visits at weekly intervals until a maintenance dose of 300 μg was established. Thus, Cotadutide or placebo was administered at the study site by study personal for the first four doses and on site on Days 5, 12, 19, and 32. At all other times, subjects preformed dosing at home.
Blood samples were collected to evaluate blood glucose (fasting) and HbA1c levels.

[4] = office-based measurement, after 32 days

## CCCCCCCCCCCCCCCC(=O)N[C@@H](CCC(=O)NCCCC[C@H](NC(=O)[C@H](CC(=O)O)NC(=O)[C@H](CO)NC(=O)[C@@H](NC(=O)[C@H](Cc1ccccc1)NC(=O)[C@@H](NC(=O)CNC(=O)[C@H](CCC(N)=O)NC(=O)[C@H](CO)NC(=O)[C@@H](N)Cc1c[nH]cn1)[C@@H](C)O)[C@@H](C)O)C(=O)N[C@@H](CO)C(=O)N[C@@H](CCC(=O)O)C(=O)N[C@@H](Cc1ccc(O)cc1)C(=O)N[C@@H](CC(C)C)C(=O)N[C@@H](CC(=O)O)C(=O)N[C@@H](CO)C(=O)N[C@@H](CCC(=O)O)C(=O)N[C@@H](CCCNC(=N)N)C(=O)N[C@@H](C)C(=O)N[C@@H](CCCNC(=N)N)C(=O)N[C@@H](CC(=O)O)C(=O)N[C@@H](Cc1ccccc1)C(=O)N[C@H](C(=O)N[C@@H](C)C(=O)N[C@@H](Cc1c[nH]c2ccccc12)C(=O)N[C@@H](CC(C)C)C(=O)N[C@@H](CCC(=O)O)C(=O)N[C@@H](C)C(=O)NCC(=O)NCC(=O)O)C(C)C)C(=O)O [Cotadutide]
[1]; ABPM
  Mean heart rate change from baseline to Day 32, asleep: 13.06 bpm
  Mean heart rate change from baseline to Day 32, awake: 10.78 bpm
[1]; Day 32
  LS mean change from baseline in pulse rate (office-based measure): 14.13 bpm
[1]; after 32 days of treatment
  changes in blood pressure: no clinically or statistically significant changes
  supine diastolic blood pressure, increase from baseline: 0.57 mmHg
  supine systolic blood pressure, increase from baseline: 1.44 mmHg
[1]; after 32 days of treatment, listed as cotadutide
  changes in blood pressure: no significant changes
[1]; by day 32, P<0.001
  Pulse rate increase: 11 beats per minute
[1]; end of the study (Day 60)
  differences in heart rate from baseline: no meaningful differences
[1]; [4]
  increase in postural blood pressure difference, diastolic: 0.8 mmHg
  increase in postural blood pressure difference, systolic: 8.9 mmHg
[1]; post-hoc analysis
  24-hour heart rate by ABPM, mean increase from baseline to Day 32: 11.85 bpm
  ABPM diastolic blood pressure, mean change from baseline to Day 32: 2.54 mmHg
  ABPM systolic blood pressure, mean change from baseline to Day 32: −1.15 mmHg
[2]
  change in eGFR from baseline to end of dosing vs placebo: No statistically significant difference
[2]; listed as cotadutide
  change in eGFR from baseline to end of dosing vs placebo: no significant changes
[3]; Insulin Dose < 20 U/day
  HbA1c LS Mean Change: −0.66%
  HbA1c Change from Baseline, Mean: −0.829%
  HbA1c Difference in LS Mean Change (vs Placebo): −0.59%
  Hemoglobin A1C, Day 32, Mean: 6.943%
  Hemoglobin A1C, Day 32, Median: 6.900%
[3]; Insulin Dose ≥ 20 U/day
  HbA1c LS Mean Change: −0.57%
  HbA1c Difference in LS Mean Change (vs Placebo): −0.55%
  Hemoglobin A1C, Day 32, Mean: 7.392%
  Hemoglobin A1C, Day 32, Median: 7.300%
[3]; Total
  HbA1c LS Mean Change: −0.65% and −0.7%
  HbA1c Change from Baseline, Mean: −0.653%
  HbA1c Difference in LS Mean Change (vs Placebo): −0.66%
  Hemoglobin A1C, Day 32, Mean: 7.226%
  Hemoglobin A1C, Day 32, Median: 7.200%
[3]; Total, listed as MEDI0382
  HbA1c LS Mean Change: −0.65%
